pEC50: −log10 of the molar value.
Experiments:
[1] = molecular target: T1, human CB2 receptor (Homo sapiens, UniProt P34972); experiment: CB2 receptor affinity, [3H]-CP-55,940 displacement, HEK cell membranes; assay type: binding; conditions: 10 μM compound, radioligand [3H]-CP-55,940
T1 construct: expressed in transfected cells; host or cells: human embryonic kidney (HEK) cells, Semliki Forest Virus system, membrane preparations
Summary of the method: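 Membranes from HEK cells transiently expressing human CB2 (Semliki Forest Virus) incubated with [3H]-CP-55,940 ± compound at 10 μM. Bound ligand separated by glass-fibre filtration and counted by scintillation; reported as % inhibition at 10 μM.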

[2] = molecular target: T2, human CB1 receptor (Homo sapiens, UniProt P21554); experiment: CB1 receptor affinity, [3H]-CP-55,940 displacement, HEK cell membranes; assay type: binding; conditions: 10 μM compound, radioligand [3H]-CP-55,940; read-out: CB1 receptor affinity [% inhibition @ 10 μM]
T2 construct: expressed in transfected cells; host or cells: human embryonic kidney (HEK) cells, Semliki Forest Virus system, membrane preparations
Summary of the method: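 Membranes from HEK cells transiently expressing human CB1 (Semliki Forest Virus system) incubated with [3H]-CP-55,940 with or without test compound. Bound and free ligand separated by glass-fibre filtration and bound radioactivity counted by scintillation. Compounds tested at 10 μM, values reported as % inhibition of radioligand binding.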

[3] = system: ABCA1 protein; experiment: Detection of upregulation of ABCA1 protein in THP-1 macrophage cells (ApoA-I binding, high content imaging); assay type: cell-based; conditions: 24 hrs with compound, AlexaFluor 647 ApoA-I binding, read-out: ABCA1 protein increasing efficacy EC50
Procedure: The ability of compounds of the invention to increase the level of ABCA1 protein is determined in replicate cultures of THP-1 macrophage cells in 96-well microplates. Cells are plated at an initial density of 100,000 cells/well in 100 μl medium and differentiated to adherent macrophages with the addition of PMA (100 nM) for 68 hrs in 10% fetal bovine serum, 3 μl/L of b-mercaptoethanol, RPMI-1640 medium. Then, cells are incubated with RPMI-1640 medium containing 1% FCS, 25 μg/ml acetylated LDL, for 24 hours at 37°. Following incubation with acetylated LDL, cells are washed twice with 50 μl PBS and incubated with 100 μl of RPMI-1640 medium containing the compound of interest solubilized in DMSO for an additional 24 hrs. The final DMSO concentration in presence of cells is maintained at 0.5%. ApoA-I binding assay using High Content Image Analysis is initiated by replacing with fresh medium, RPMI without Phenol Red, 0.2% BSA containing AlexaFluor®647 labeled ApoA-I for 2 h/37° C./5% CO2. Then, cells are fixed with 4% Formaldehyde in PBS (15 min, RT). Following Nuclei are stained with Hoechst solution (3 μM PBS) and Cytoplasm with Cell Mask Blue (2 μg/ml PBS), 15 min, RT. Finally the stained cells are fixed with a second round of formaldehyde treatment. Fixed stained cells are washed and kept in PBS at 4° C. and can be read immediately until one month after preparation.
The Alexa Fluor 647-labeled Apolipoprotein A-I (20 nM) was prepared as follows: Human recombinant Apolipoprotein A-I (ApoA-I) was exchanged to a buffer of 0.02 M NaHCO3 at pH 8.2 on an NAP desalting column (GE Healthcare) and brought to a concentration to 40 μM (1.13 mg/ml) by adjustment with the same buffer. The ApoA-I was fluorescently labeled by incubation with Alexa Fluor carboxylic acid succimidyl ester. (Alexa Fluor 647, Invitrogen A-20006) at a 2:1 molar ratio (Alexa to ApoA-I) for 1 h under shaking at RT. The remaining unconjugated label was removed by buffer exchange to 0.02M NaHCO3 at pH 8.2.
Imaging and data collection were performed on an OPERA confocal microplate imaging reader using a 20× water immersion objective and UV360 or 405 laser to identify the cell nuclei and a 635 laser to identify the fluorescent ApoA-I. Eight fields of view are captured per well. Image capture and analysis was performed with the Acapella software. Background fluorescence detected in control wells without ApoA-I was subtracted.
Using XLfit3 program (ID Business Solutions Ltd. UK), the model 205 for Dose Response One Site is used to calculate the EC50 values. […] Preferably, the compounds of the present invention have EC50 values in a range of 0.1 μM to 3 μM.

T1 sequence (P34972 whole entry): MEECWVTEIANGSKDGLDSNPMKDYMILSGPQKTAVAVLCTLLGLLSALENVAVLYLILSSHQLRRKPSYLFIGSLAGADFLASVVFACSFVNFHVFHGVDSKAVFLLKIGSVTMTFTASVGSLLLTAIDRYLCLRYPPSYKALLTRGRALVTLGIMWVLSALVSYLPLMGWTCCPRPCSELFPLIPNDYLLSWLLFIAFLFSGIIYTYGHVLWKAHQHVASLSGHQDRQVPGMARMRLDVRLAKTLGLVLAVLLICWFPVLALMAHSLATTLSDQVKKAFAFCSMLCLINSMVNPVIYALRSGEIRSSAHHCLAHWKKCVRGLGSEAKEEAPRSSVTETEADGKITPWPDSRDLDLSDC
T2 sequence (P21554 whole entry): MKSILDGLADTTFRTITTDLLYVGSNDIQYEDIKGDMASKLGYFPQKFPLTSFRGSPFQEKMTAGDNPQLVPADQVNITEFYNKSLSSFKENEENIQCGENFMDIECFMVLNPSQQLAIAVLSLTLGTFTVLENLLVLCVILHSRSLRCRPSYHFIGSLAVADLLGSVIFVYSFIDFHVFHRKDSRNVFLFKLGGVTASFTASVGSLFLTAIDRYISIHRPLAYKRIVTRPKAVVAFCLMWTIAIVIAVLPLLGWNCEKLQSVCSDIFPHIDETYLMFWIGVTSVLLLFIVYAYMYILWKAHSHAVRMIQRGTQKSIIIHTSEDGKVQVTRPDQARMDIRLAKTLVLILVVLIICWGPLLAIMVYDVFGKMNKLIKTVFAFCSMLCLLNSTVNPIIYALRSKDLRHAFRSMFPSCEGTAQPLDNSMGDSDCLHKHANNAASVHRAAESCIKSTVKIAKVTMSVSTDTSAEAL

inhibition at 10 µM [1] [%] | inhibition at 10 µM [2] [%] | SMILES | pEC50 [3]
7 | 33 | CC(C)c1cc(CNC(=O)c2ccc(OCC(F)(F)F)c(-c3ccc(Cl)cc3)n2)on1 [Example 64, 6-(4-chloro-phenyl)-5-(2,2,2-trifluoro-ethoxy)-pyridine-2-carboxylic acid (3-isopropyl-isoxazol-5-ylmethyl)-amide] | 6.07
9 | 20 | COc1cc(CNC(=O)c2cnc(OCC(F)(F)F)c(-c3ccc(F)c(F)c3)c2)on1 [Example 99, 5-(3,4-difluorophenyl)-N-((3-methoxyisoxazol-5-yl)methyl)-6-(2,2,2-trifluoroethoxy)nicotinamide] | 5.90
6 | 22 | CCc1nc(CNC(=O)c2cnc(OCC(F)(F)F)c(-c3ccc(Cl)cc3)c2)cs1 [Example 7, 5-(4-chloro-phenyl)-N-(2-ethyl-thiazol-4-ylmethyl)-6-(2,2,2-trifluoro-ethoxy)-nicotinamide] | 5.82
9 | 8 | Cc1cc(-c2cc(C(=O)NCc3csc(C4CC4)n3)ncc2OCC(F)(F)F)ccc1Cl [Example 76, 4-(4-chloro-3-methylphenyl)-N-((2-cyclopropylthiazol-4-yl)methyl)-5-(2,2,2-trifluoroethoxy)picolinamide] | 5.79
13 | 34 | CC(C)c1cc(CNC(=O)c2cc(-c3ccc(Cl)cc3)c(OCC(F)(F)F)nn2)no1 [Example 42, 5-(4-chloro-phenyl)-6-(2,2,2-trifluoro-ethoxy)-pyridazine-3-carboxylic acid (5-isopropyl-isoxazol-3-ylmethyl)-amide] | 6.10
-3 | 30 | O=C(NCc1cc(C(F)(F)F)no1)c1cc(-c2ccc(Cl)cc2)c(OCC(F)(F)F)nn1 [Example 60, 5-(4-chloro-phenyl)-6-(2,2,2-trifluoro-ethoxy)-pyridazine-3-carboxylic acid (3-trifluoromethyl-isoxazol-5-ylmethyl)-amide] | 6.12
7 | 18 | COc1cc(CNC(=O)c2cc(-c3ccc(Cl)cc3)c(OCC(F)(F)F)nn2)on1 [Example 23, 5-(4-chlorophenyl)-N-((3-methoxyisoxazol-5-yl)methyl)-6-(2,2,2-trifluoroethoxy)pyridazine-3-carboxamide] | 6.03
